# Test results from paper PMC12017303 (Science Advances, 2025).
# Columns and labels:
# [1] = tested on: SARS-CoV-2 EG.5.1 in A549-ACE2^h; assay: microbe, parasite or virus in culture; assay type: cell-based; settings: Severe acute respiratory syndrome coronavirus 2, read-out: Viral replication in A549-ACE2^h EC50: EG.5.1
# [2] = tested on: SARS-CoV-2 BA.2.86.1 replicon in Vero ACE2 TMPRSS2; assay: microbe, parasite or virus in culture; assay type: cell-based; settings: Severe acute respiratory syndrome coronavirus 2, Vero, read-out: Replicon replication in Vero ACE2 TMPRSS2 EC50: BA.2.86.1
# in vitro [3] = settings: human
# in vitro [4] = settings: mouse, microsomes, pH 7.4
# [5] = tested on: SARS-CoV-2 XBB.1.16 in A549-ACE2^h; assay: microbe, parasite or virus in culture; assay type: cell-based; settings: Severe acute respiratory syndrome coronavirus 2, read-out: Viral replication in A549-ACE2^h EC50: XBB.1.16
# in vitro [6] = settings: human, microsomes, pH 7.4
# P-gp (MDR1) = assay: in vitro; settings: dog; for Papp B→A: MDCK-MDR1; for Papp A→B: MDCK-MDR1, MDCK AB
# physchem = settings: pH 7.4, aqueous buffer, kinetic from dmso stock
# in vitro [7] = settings: PAMPA, pH 7.4
# in vivo [8] = settings: male, CD-1, mouse; for AUC(0-t): AUClast; for Vd: Vss
# [9] = male, CD-1, mouse, in vivo; for AUClast / Plasma T½: po, 50 mg/kg
# [10] = tested on: SARS-CoV-2 WA.1 replicon in Vero ACE2 TMPRSS2; assay: microbe, parasite or virus in culture; assay type: cell-based; settings: Severe acute respiratory syndrome coronavirus 2, Vero, read-out: Replicon replication in Vero ACE2 TMPRSS2 EC50: WA.1
# [11] = tested on: SARS-CoV-2 WA.1 (icSARS-CoV-2-mNG) in A549-ACE2^h; assay: microbe, parasite or virus in culture; assay type: cell-based; settings: for EC50: Severe acute respiratory syndrome coronavirus 2, read-out: Viral replication in A549-ACE2^h EC50: WA.1
# [12] = tested on: SARS-CoV-2 XBB.1.5 in A549-ACE2^h; assay: microbe, parasite or virus in culture; assay type: cell-based; settings: Severe acute respiratory syndrome coronavirus 2, read-out: Viral replication in A549-ACE2^h EC50: XBB.1.5
# in vitro [13] = settings: plasma
# cathepsin L2 = cathepsin L2 (Homo sapiens, UniProt O60911)
# [14] = rat, in vivo; cited from earlier work
# HCoV Beta OC43 = assay: microbe, parasite or virus in culture; assay type: cell-based; settings: Betacoronavirus 1, OC43
# [15] = target: SARS-CoV-2 M^Pro (Cys^145) (Severe acute respiratory syndrome coronavirus 2, UniProt P0DTD1); assay type: binding
# in vitro [16] = settings: African green monkey
# HAPLN1 = HAPLN1 (Homo sapiens, UniProt P10915); assay type: binding
# [17] = tested on: panel of 40 receptors, ion channels (including the hERG channel), and serine and cysteine proteases
# [18] = tested on: SARS-CoV-2 BA.2 (omicron); assay: microbe, parasite or virus in culture; assay type: cell-based; settings: Severe acute respiratory syndrome coronavirus 2, Vero C1008
# SARS-CoV-2 M^Pro = SARS-CoV-2 M^Pro (Severe acute respiratory syndrome coronavirus 2, UniProt P0DTD1); assay type: biochemical
# SARS-CoV-1 M^Pro = SARS-CoV-1 M^Pro (Severe acute respiratory syndrome coronavirus, UniProt P0C6X7); assay: biochemical
# CYP2C8 = CYP2C8 (Homo sapiens, UniProt P10632); settings: human, pH 7.4
# [19] = tested on: SARS-CoV-2 mNeon WA1 in A549-ACE2^h; assay type: cell-based
# in vivo [20] = settings: mouse
# [21] = tested on: SARS-CoV-2 mNeon XBB.1.16 in A549-ACE2^h; assay type: cell-based
# HCoV Alpha 229E = assay: organism not typed; assay type: cell-based, HCoV 229E; settings: Huh-7
# [22] = tested on: human cytochrome P450 (CYP) isoforms; settings: human, pH 7.4
# SARS-CoV Urbani = assay: microbe, parasite or virus in culture; assay type: cell-based; settings: Severe acute respiratory syndrome coronavirus, Vero C1008
# MERS-CoV EMC = assay: microbe, parasite or virus in culture; assay type: cell-based; settings: Middle East respiratory syndrome-related coronavirus, Vero C1008
# Chain of HAPLN1 (P10915 16-354): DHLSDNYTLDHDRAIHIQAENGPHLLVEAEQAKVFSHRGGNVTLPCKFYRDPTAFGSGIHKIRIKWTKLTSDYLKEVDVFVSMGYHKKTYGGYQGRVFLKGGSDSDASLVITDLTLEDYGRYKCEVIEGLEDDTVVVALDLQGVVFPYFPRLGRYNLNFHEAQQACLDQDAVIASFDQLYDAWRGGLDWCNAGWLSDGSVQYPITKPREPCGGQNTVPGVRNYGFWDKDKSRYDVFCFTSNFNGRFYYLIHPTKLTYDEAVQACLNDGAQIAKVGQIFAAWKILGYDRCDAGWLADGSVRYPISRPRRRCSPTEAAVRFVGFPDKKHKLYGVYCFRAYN
# Chain of cathepsin L2 (O60911 114-334): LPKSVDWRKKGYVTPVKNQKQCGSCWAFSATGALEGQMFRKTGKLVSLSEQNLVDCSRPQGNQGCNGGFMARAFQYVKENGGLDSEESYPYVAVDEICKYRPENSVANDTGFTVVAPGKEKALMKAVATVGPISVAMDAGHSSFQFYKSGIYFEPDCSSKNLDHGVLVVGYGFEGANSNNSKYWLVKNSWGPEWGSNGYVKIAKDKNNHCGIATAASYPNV
# Chain of CYP2C8 (P10632 whole entry): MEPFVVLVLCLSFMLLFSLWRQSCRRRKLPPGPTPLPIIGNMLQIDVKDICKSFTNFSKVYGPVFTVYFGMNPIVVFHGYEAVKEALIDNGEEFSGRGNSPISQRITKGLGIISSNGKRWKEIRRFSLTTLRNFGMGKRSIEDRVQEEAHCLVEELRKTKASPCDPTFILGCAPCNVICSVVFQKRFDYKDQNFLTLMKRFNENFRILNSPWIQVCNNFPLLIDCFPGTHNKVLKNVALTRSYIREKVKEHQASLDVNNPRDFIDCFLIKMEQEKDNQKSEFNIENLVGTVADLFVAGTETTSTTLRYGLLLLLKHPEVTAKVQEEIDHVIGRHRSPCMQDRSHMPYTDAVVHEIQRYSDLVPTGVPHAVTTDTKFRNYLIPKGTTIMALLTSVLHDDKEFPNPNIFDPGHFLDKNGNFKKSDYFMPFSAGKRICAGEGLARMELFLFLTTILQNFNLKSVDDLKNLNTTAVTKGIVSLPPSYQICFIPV
compound,measurement,setting,value
O=c1[nH]c(-c2ccc(Cl)c(Cl)c2)c(-n2nnc3cc(F)c(F)cc32)c(=O)n1-c1cncc2ccccc12 [AVI-4673],EC50,[1],230 nM
same,EC50,[2],280 nM
same,CC50,in vitro [3],> 100000 nM
same,viability at 100 µM,in vitro [3],94.4%
same,half-life,in vitro [4],> 2 h
same,EC50,[5],360 nM
same,half-life,in vitro [6],> 2 h
same,Papp B→A,P-gp (MDR1),18.4 ×10⁻⁶ cm/s
same,Papp A→B,P-gp (MDR1),2.1 ×10⁻⁶ cm/s
same,solubility,physchem,475 µM
same,Papp,in vitro [7],4.99 ×10⁻⁶ cm/s
same,bioavailability,in vivo [8]; F,71.6%
same,MRT inf,"in vivo [8]; iv, 10 mg/kg",1.53 h
same,clearance,"in vivo [8]; iv, 10 mg/kg",51.7 mL/min/kg
same,half-life,"in vivo [8]; iv, 10 mg/kg",2.19 h
same,AUC(0-inf),"in vivo [8]; iv, 10 mg/kg, AUCINF",3220 ng·h/mL
same,AUC(0-t),"in vivo [8]; iv, 10 mg/kg",3100 ng·h/mL
same,Vd,"in vivo [8]; iv, 10 mg/kg",4.75 L/kg
same,half-life,"in vivo [8]; po, 50 mg/kg",2.12 h
same,AUC(0-inf),"in vivo [8]; po, 50 mg/kg, AUCINF",11500 ng·h/mL
same,AUC(0-inf),"in vivo [8]; po, 50 mg/kg, AUCinf",11500 ng·h/mL
same,AUC(0-t),"in vivo [8]; po, 50 mg/kg",11500 ng·h/mL
same,Cmax,"in vivo [8]; po, 50 mg/kg, CMax",2420 ng/mL
same,Cmax,"in vivo [8]; po, 50 mg/kg, Cmax",2420 ng/mL
same,Tmax,"in vivo [8]; po, 50 mg/kg, TMax",4 h
same,Tmax,"in vivo [8]; po, 50 mg/kg, Tmax",2 h
same,Mouse F,[9],76
same,AUClast,[9],11500 ng·h/mL
same,Plasma T½,[9],2.12 h
same,EC50,[10],940 nM
same,EC50,[11],190 nM
same,EC50,[12],150 nM
same,fraction unbound,"in vitro [13]; pH 7.4, PPB",0.005
same,"cathepsin L2 inhibition, result in words",cathepsin L2,low-micromolar inhibitor
"CC(C)(C)[C@H](NC(=O)C(F)(F)F)C(=O)N1C[C@H]2[C@@H]([C@H]1C(=O)N[C@H](C#N)C[C@@H]1CCNC1=O)C2(C)C [nirmatrelvir, reference compound]",EC50,[1],67 nM
same,EC50,[2],810 nM
same,brain concentrations relative to EC90,[14],only three times the respective EC90 value
same,EC50,[5],41 nM
same,EC50,[10],620 nM
same,EC50,[11],31 nM
same,EC50,[12],21 nM
C#CCn1c(C)c(-n2nnc3ccccc32)c(=O)n(-c2cncc3ccccc23)c1=O [AVI-4516],EC50,[1],37 nM
same,EC50,HCoV Beta OC43,590 nM
same,EC90,HCoV Beta OC43,520 nM
same,covalent adduct by whole protein MS,[15],single modification consistent with the mass of AVI-4516
same,CC50,in vitro [16],> 100000 nM
same,increase in Tm of HAPLN1,HAPLN1,5.77 °C
same,EC50,[2],130 nM
same,CC50,in vitro [3],> 100000 nM
same,viability at 100 µM,in vitro [3],90.4%
same,half-life,in vitro [4],> 2 h
same,EC50,[5],34 nM
same,"off-target activity across panel, result in words",[17],no substantial inhibition or interference with any of the off-targets
same,EC50,[18],180 nM
same,EC90,[18],390 nM
same,M^Pro activity after dialysis,SARS-CoV-2 M^Pro,activity was not regained
same,half-life,in vitro [6],> 2 h
same,IC50,SARS-CoV-1 M^Pro,55 nM
same,CYP2C8 inhibition,CYP2C8,~ 45%
same,Papp B→A,P-gp (MDR1),45.2 ×10⁻⁶ cm/s
same,Papp A→B,P-gp (MDR1),13.3 ×10⁻⁶ cm/s
same,solubility,physchem,347 µM
same,synergy with molnupiravir (ZIP analysis),[19],a minor effect was observed in the direction of positive synergy
same,Kp,in vivo [20],~0.05
same,Papp,in vitro [7],22.4 ×10⁻⁶ cm/s
same,synergy with molnupiravir (ZIP analysis),[21],synergy was observed at several concentrations
same,bioavailability,in vivo [8]; F,174%
same,MRT inf,"in vivo [8]; iv, 10 mg/kg",0.798 h
same,clearance,"in vivo [8]; iv, 10 mg/kg",29 mL/min/kg
same,half-life,"in vivo [8]; iv, 10 mg/kg",0.866 h
same,AUC(0-inf),"in vivo [8]; iv, 10 mg/kg, AUCINF",5740 ng·h/mL
same,AUC(0-t),"in vivo [8]; iv, 10 mg/kg",5730 ng·h/mL
same,Vd,"in vivo [8]; iv, 10 mg/kg",1.39 L/kg
same,bioavailability,in vivo [8]; oral bioavailability (%F),> 100%
same,half-life,"in vivo [8]; po, 50 mg/kg",4.7 h
same,AUC(0-inf),"in vivo [8]; po, 50 mg/kg, AUCINF",69500 ng·h/mL
same,AUC(0-inf),"in vivo [8]; po, 50 mg/kg, AUCinf",69500 ng·h/mL
same,AUC(0-t),"in vivo [8]; po, 50 mg/kg",49900 ng·h/mL
same,Cmax,"in vivo [8]; po, 50 mg/kg, CMax",10100 ng/mL
same,Cmax,"in vivo [8]; po, 50 mg/kg, Cmax",10100 ng/mL
same,Tmax,"in vivo [8]; po, 50 mg/kg, TMax",1 h
same,Tmax,"in vivo [8]; po, 50 mg/kg, Tmax",1 h
same,EC50,HCoV Alpha 229E,2900 nM
same,EC90,HCoV Alpha 229E,3500 nM
same,Mouse F,[9],57
same,free concentration in plasma,[9],2615 nM
same,AUClast,[9],49900 ng·h/mL
same,Plasma T½,[9],4.7 h
same,EC50,[10],160 nM
same,inhibition across the CYP panel,[22],≤ 25%
same,EC50,SARS-CoV Urbani,570 nM
same,EC90,SARS-CoV Urbani,1000 nM
same,EC50,MERS-CoV EMC,< 32 nM
same,EC50,[11],38 nM
same,EC90,"[11]; Severe acute respiratory syndrome coronavirus 2, read-out: cellular 90% effective concentration (EC90)",97 nM
same,EC50,[12],30 nM
same,fraction unbound,"in vitro [13]; pH 7.4, PPB",0.37
same,fraction unbound,"in vitro [13]; pH 7.4, plasma protein binding (PPB)",0.39
